Test results published in US20090099195A1 (ASTRAZENECA AB, priority 2007, published 2009).

The molecules below were run against T1, hP2X3 (human Purinergic P2X receptors subtype 3), clone B (Homo sapiens, UniProt P56373) (assay: hP2X3 FLIPR calcium (Fluo-4) antagonist assay, clone B). Details: Human P2X3 FLIPR Clone B IC50 (nM), RLE cells expressing hP2X3 clone B (NM_002559); agonist 500 nM α,β-methylene-ATP.
T1 sequence (P56373 1-397): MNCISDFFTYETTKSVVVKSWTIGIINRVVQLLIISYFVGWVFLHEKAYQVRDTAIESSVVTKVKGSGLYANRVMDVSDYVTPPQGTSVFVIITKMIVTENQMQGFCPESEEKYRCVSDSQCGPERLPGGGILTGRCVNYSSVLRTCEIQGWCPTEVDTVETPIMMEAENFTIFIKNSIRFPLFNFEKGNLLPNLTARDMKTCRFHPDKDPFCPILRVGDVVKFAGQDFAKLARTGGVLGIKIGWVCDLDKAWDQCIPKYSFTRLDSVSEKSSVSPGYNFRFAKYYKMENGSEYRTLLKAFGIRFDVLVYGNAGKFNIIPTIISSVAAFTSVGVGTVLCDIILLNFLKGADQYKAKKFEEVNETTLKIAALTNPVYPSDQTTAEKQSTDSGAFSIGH
Experimental: The assay used a calcium indicator dye (Fluo-4) that emits fluorescence, the intensity of which is related to the concentration of calcium that entered the cell when P2X3 was activated and the channel opened. Activation of hP2X3 or rat P2X3 and rat P2X2/3 (from the coexpression of rat P2X3 and rat P2×2) is elicited the by P2X3 agonist α,β methylene-ATP (Sigma M6517), and the resulting fluorescence is measured with a FLIPR II™ instrument (Molecular Devices). Compounds are tested for their ability to inhibit the agonist-induced fluorescent signal.
For the rat P2X2/3 HEK-TREX cells, induction of the rat P2X3 expression is used to generate the rat P2X2/3 channels in HEK-TREX cells and performed by addition of 1 μg/mL tetracycline (Invitrogen) 24 h prior to compounds testing to the HEK-TREX expressing the rat P2X2 constitutively. On the day of the experiment, the cells and test compounds are prepared as follows. […] After preparing the compounds, the medium is removed from the cell plates by inversion. A loading solution of 30 μL assay buffer containing 4 μM of the calcium indicator dye FLUO-4 AM (Molecular Probes F14202) is added to each well using a Multidrop (Labsystems). […] The incubation is terminated by washing the cells four times in assay buffer using a Skatron Embla (Molecular Devices), and 25 μL of assay buffer was left in each well. Cell plates are then transferred to the FLIPR. Experiments are initiated by measuring a baseline fluorescence reading for 10 seconds, followed by the addition of 12.5 μL of cpds and data sampling for a total 280 seconds. The experiments are terminated by addition of 12.5 μL of a reference agonist (500 nM α,β-methylene-ATP) or buffer, producing a final assay volume of 50 μL followed by data sampling for an additional 280 seconds.
In P2X3 antagonist experiments (human and rat assays) data are analysed as normalised maximal peak fluorescence monitored following agonist addition and calculated as percent of relative fluorescent counts from control agonist. The dose-response antagonist inhibition curves are analyzed in a 4-parameter sigmoidal fit using a non-linear curve-fitting program (XLfit version 5.0.6, ID Business Solutions Limited, Guildford, UK).

| IC50 | Compound |
| --- | --- |
| 1400 nM | CCN1CCN(c2nc(NC3c4cccnc4CCc4c(F)cccc43)c3c(n2)C(=O)N(C(C)C)C3)CC1 (stereo not drawn) [Example 120, 2-(4-ethylpiperazin-1-yl)-4-[(9-fluoro-10,11-dihydro-5H-benzo[4,5]cyclohepta[1,2-b]pyridin-5-yl)amino]-6-isopropyl-5,6-dihydro-7H-pyrrolo[3,4-d]pyrimidin-7-one] |
| 9100 nM | CC(=O)N1CCN(c2nc3c(c(N4CCOC(C)(c5ccc(Cl)cc5)C4)n2)CN(C(C)C)C3=O)CC1 (stereo not drawn) [Example 123, 2-(4-acetylpiperazin-1-yl)-4-[2-(4-chlorophenyl)-2-methylmorpholin-4-yl]-6-isopropyl-5,6-dihydro-7H-pyrrolo[3,4-d]pyrimidin-7-one] |
| 3000 nM | CC(C)C(=O)N1CCN(c2nc(NC(C)(C)Cc3ccc(Cl)cc3)c3c(n2)C(=O)N(C(C)C)C3)CC1 [Example 124, 4-{[2-(4-chlorophenyl)-1,1-dimethylethyl]amino}-2-(4-isobutyrylpiperazin-1-yl)-6-isopropyl-5,6-dihydro-7H-pyrrolo[3,4-d]pyrimidin-7-one] |
| 3800 nM | CC(C)N1Cc2c(NC(C)(C)Cc3ccc(Cl)cc3)nc(N3CCN(C(=O)C(C)(C)C)CC3)nc2C1=O [Example 125, 4-{[2-(4-chlorophenyl)-1,1-dimethylethyl]amino}-2-[4-(2,2-dimethylpropanoyl)piperazin-1-yl]-6-isopropyl-5,6-dihydro-7H-pyrrolo[3,4-d]pyrimidin-7-one] |
| 2300 nM | CC(C)N1Cc2c(NC(C)(C)Cc3ccc(Cl)cc3)nc(N3CCN(C(=O)C4CC4)CC3)nc2C1=O [Example 126, 4-{[2-(4-chlorophenyl)-1,1-dimethylethyl]amino}-2-[4-(cyclopropylcarbonyl)piperazin-1-yl]-6-isopropyl-5,6-dihydro-7H-pyrrolo[3,4-d]pyrimidin-7-one] |
| 2200 nM | CC(C)N1Cc2c(NC(C)(C)Cc3ccc(Cl)cc3)nc(N3CCN(C(=O)N(C)C)CC3)nc2C1=O [Example 127, 4-(4-{[2-(4-chlorophenyl)-1,1-dimethylethyl]amino}-6-isopropyl-7-oxo-6,7-dihydro-5H-pyrrolo[3,4-d]pyrimidin-2-yl)-N,N-dimethylpiperazine-1-carboxamide] |
| 280 nM | CC(C)N1Cc2c(NC(C)(C)Cc3ccc(Cl)cc3)nc(N3CCN(C=O)CC3)nc2C1=O [Example 128, 4-(4-{[2-(4-chlorophenyl)-1,1-dimethylethyl]amino}-6-isopropyl-7-oxo-6,7-dihydro-5H-pyrrolo[3,4-d]pyrimidin-2-yl)piperazine-1-carbaldehyde] |
| 150 nM | CC(=O)N1CCN(c2nc3c(c(N4CCCC4Cc4ccc(F)cc4)n2)CN(C(C)C)C3=O)CC1 (stereo not drawn) [Example 129, 2-(4-Acetylpiperazin-1-yl)-4-[2-(4-fluorobenzyl)-pyrrolidin-1-yl]-6-isopropyl-5H-pyrrolo[3,4-d]pyrimidin-7(6H)-one] |
| 4200 nM | CC(=O)N1CCN(c2nc(NC3CCc4cc(Cl)ccc43)c3c(n2)C(=O)N(C(C)C)C3)CC1 (stereo not drawn) [Example 133, 2-(4-Acetylpiperazin-1-yl)-4-(5-chloro-2,3-dihydro-1H-inden-1-ylamino)-6-isopropyl-5H-pyrrolo[3,4-d]pyrimidin-7(6H)-one] |
| 870 nM | CC(C)N1Cc2c(NCc3cnc4ccccc4c3)nc(N3CCN4C(=O)CCC4C3)nc2C1=O (stereo not drawn) [Example 135, 6-Isopropyl-2-(6-oxohexahydropyrrolo[1,2-a]pyrazin-2(1H)-yl)-4-(quinolin-3-ylmethylamino)-5H-pyrrolo[3,4-d]pyrimidin-7(6M)-one] |
| 680 nM | CC(C)N1Cc2c(NCc3cnc4ccccc4c3)nc(N3CCn4cnnc4C3)nc2C1=O [Example 137, 2-(5,6-Dihydro-[1,2,4]triazolo[4,3-a]pyrazin-7(8H)-yl)-6-isopropyl-4-(quinolin-3-ylmethylamino)-5H-pyrrolo[3,4-d]pyrimidin-7(6H)-one] |
| 1000 nM | CC(=O)N1CCN(c2nc(NC(C)(C)Cc3ccc(F)cc3)c3c(n2)C(=O)N(C(C)C)C3)C(C)C1 (stereo not drawn) [Example 139, 2-(4-Acetyl-2-methyl-piperazin-1-yl)-4-[2-(4-fluoro-phenyl)-1,1-dimethyl-ethylamino]-6-isopropyl-5,6-dihydro-pyrrolo[3,4-d]pyrimidin-7-one] |
| 160 nM | CC(=O)N1CCN(c2nc(NCc3cc(C(C)(C)C)[nH]n3)c3c(n2)C(=O)N(C(C)C)C3)CC1 [Example 143, 4-(4-acetylpiperazin-1-yl)-8-propan-2-yl-2-[(5-tert-butyl-1H-pyrazol-3-yl)methylamino]-3,5,8-triazabicyclo[4.3.0]nona-1,3,5-trien-7-one] |
| 3200 nM | CC(=O)N1CCN(c2nc(NCc3nc(-c4ccccc4)no3)c3c(n2)C(=O)N(C(C)C)C3)CC1 [Example 145, 4-(4-acetylpiperazin-1-yl)-2-[(3-phenyl-1,2,4-oxadiazol-5-yl)methylamino]-8-propan-2-yl-3,5,8-triazabicyclo[4.3.0]nona-1,3,5-trien-7-one] |
| 940 nM | CC(=O)N1CCN(c2nc(NCc3n[nH]c4c3CCC4)c3c(n2)C(=O)N(C(C)C)C3)CC1 [Example 151, 4-(4-acetylpiperazin-1-yl)-2-(6,7-diazabicyclo[3.3.0]octa-7,9-dien-8-ylmethylamino)-8-propan-2-yl-3,5,8-triazabicyclo[4.3.0]nona-1,3,5-trien-7-one] |
| 270 nM | CC(=O)N1CCN(c2nc(NCc3cn(C4CCCC4)nc3C)c3c(n2)C(=O)N(C(C)C)C3)CC1 [Example 152, 4-(4-acetylpiperazin-1-yl)-2-[(1-cyclopentyl-3-methyl-pyrazol-4-yl)methylamino]-8-propan-2-yl-3,5,8-triazabicyclo[4.3.0]nona-2,4,10-trien-7-one] |
| 120 nM | CC(=O)N1CCN(c2nc(NCc3cc(-c4ccccc4)n(C)n3)c3c(n2)C(=O)N(C(C)C)C3)CC1 [Example 153, 4-(4-acetylpiperazin-1-yl)-2-[(1-methyl-5-phenyl-pyrazol-3-yl)methylamino]-8-propan-2-yl-3,5,8-triazabicyclo[4.3.0]nona-1,3,5-trien-7-one] |
| 160 nM | CC(=O)N1CCN(c2nc(NCc3cc(-c4ccccc4)nn3C)c3c(n2)C(=O)N(C(C)C)C3)CC1 [Example 154, 4-(4-acetylpiperazin-1-yl)-2-[(2-methyl-5-phenyl-pyrazol-3-yl)methylamino]-8-propan-2-yl-3,5,8-triazabicyclo[4.3.0]nona-1,3,5-trien-7-one] |
| 500 nM | CC(=O)N1CCN(c2nc(NCc3cn4ccccc4n3)c3c(n2)C(=O)N(C(C)C)C3)CC1 [Example 155, 4-(4-acetylpiperazin-1-yl)-2-(1,7-diazabicyclo[4.3.0]nona-2,4,6,8-tetraen-8-ylmethylamino)-8-propan-2-yl-3,5,8-triazabicyclo[4.3.0]nona-1,3,5-trien-7-one] |
| 830 nM | CCOc1cccc([C@@H](C)Nc2nc(N3CCN(C(C)=O)CC3)nc3c2CN(C(C)C)C3=O)c1 [Example 156, (R)-2-(4-acetylpiperazin-1-yl)-4-(1-(3-ethoxyphenyl)ethylamino)-6-isopropyl-5H-pyrrolo[3,4-d]pyrimidin-7(6H)-one] |
| 390 nM | CCOc1ccc(C(C)N(C)c2nc(N3CCN(C(C)=O)CC3)nc3c2CN(C(C)C)C3=O)cc1 (stereo not drawn) [Example 157, 2-(4-acetylpiperazin-1-yl)-4-((1-(4-ethoxyphenyl)ethyl)(methyl)amino)-6-isopropyl-5H-pyrrolo[3,4-d]pyrimidin-7(6H)-one] |
